Consider 14 molecules from US20240376121A1, “COMPOUNDS AND USES THEREOF” (Foghorn Therapeutics Inc., priority 2021, published 2024).

Test [1] concerns the target T1, HiBit-BRG1 fusion protein (Homo sapiens, UniProt P51532).
T1 construct: expressed in transfected cells
Nature of the test: HiBiT-BRG1 cell-based degradation assay (Nano-Glo HiBiT Lytic Detection). The conditions noted are these: stable HeLa cell line expressing HiBit-BRG1 and LgBit, 24 h incubation; for Dmax: top dose 30 μM, read-out: BRG1 HiBit Degradation Maximum (%); for DC50: read-out: BRMG1 HiBit Degradation IC50. On the procedure: (§1) Procedure: A stable HeLa cell line expressing HiBiT-BRM was generated. On day 0, 5000 cells were seeded in 40 μL of media into each well of 384-well cell culture plates. On day 1, cells were treated with 120 nL DMSO or 120 nL of 3-fold serially DMSO-diluted compounds (10 points in duplicate with 30 μM as final top dose). Subsequently plates were incubated for 24 h in a standard tissue culture incubator and equilibrated at room temperature for 15 minutes. Nano-Glo HiBiT Lytic Detection System (Promega N3050) reagent was freshly prepared and 20 ul was added to each well. Upon addition of this LgBit-containing reagent, the HiBiT and LgBiT proteins associate to form the luminescent NanoBiT luciferase. The plates were shaken for 10 minutes at room temperature and the bioluminescence read using an EnVision plate reader (PerkinElmer).
For measurement of BRG1 degradation, a stable HeLa cell line expressing HiBit-BRG1 and LgBit was generated. The same protocol as above was then followed.
(§2) The degradation % was calculated using the following formula: % degradation=100%−100%×(LumSample−LumLC)/(LumHC−LumLC). DMSO treated cells are employed as High Control (HC) and 2 μM of a known BRM/BRG1 degrader standard treated cells are employed as Low Control (LC).
(With HiBiT, luminescence reflects the tagged protein that the partner subunit can reach.)

For another test, the target named is T2, HiBit-BRM fusion protein (Homo sapiens, UniProt P51531).
T2 construct: expressed in transfected cells
T2 sequence (P51531 whole entry, the tested form may be a part): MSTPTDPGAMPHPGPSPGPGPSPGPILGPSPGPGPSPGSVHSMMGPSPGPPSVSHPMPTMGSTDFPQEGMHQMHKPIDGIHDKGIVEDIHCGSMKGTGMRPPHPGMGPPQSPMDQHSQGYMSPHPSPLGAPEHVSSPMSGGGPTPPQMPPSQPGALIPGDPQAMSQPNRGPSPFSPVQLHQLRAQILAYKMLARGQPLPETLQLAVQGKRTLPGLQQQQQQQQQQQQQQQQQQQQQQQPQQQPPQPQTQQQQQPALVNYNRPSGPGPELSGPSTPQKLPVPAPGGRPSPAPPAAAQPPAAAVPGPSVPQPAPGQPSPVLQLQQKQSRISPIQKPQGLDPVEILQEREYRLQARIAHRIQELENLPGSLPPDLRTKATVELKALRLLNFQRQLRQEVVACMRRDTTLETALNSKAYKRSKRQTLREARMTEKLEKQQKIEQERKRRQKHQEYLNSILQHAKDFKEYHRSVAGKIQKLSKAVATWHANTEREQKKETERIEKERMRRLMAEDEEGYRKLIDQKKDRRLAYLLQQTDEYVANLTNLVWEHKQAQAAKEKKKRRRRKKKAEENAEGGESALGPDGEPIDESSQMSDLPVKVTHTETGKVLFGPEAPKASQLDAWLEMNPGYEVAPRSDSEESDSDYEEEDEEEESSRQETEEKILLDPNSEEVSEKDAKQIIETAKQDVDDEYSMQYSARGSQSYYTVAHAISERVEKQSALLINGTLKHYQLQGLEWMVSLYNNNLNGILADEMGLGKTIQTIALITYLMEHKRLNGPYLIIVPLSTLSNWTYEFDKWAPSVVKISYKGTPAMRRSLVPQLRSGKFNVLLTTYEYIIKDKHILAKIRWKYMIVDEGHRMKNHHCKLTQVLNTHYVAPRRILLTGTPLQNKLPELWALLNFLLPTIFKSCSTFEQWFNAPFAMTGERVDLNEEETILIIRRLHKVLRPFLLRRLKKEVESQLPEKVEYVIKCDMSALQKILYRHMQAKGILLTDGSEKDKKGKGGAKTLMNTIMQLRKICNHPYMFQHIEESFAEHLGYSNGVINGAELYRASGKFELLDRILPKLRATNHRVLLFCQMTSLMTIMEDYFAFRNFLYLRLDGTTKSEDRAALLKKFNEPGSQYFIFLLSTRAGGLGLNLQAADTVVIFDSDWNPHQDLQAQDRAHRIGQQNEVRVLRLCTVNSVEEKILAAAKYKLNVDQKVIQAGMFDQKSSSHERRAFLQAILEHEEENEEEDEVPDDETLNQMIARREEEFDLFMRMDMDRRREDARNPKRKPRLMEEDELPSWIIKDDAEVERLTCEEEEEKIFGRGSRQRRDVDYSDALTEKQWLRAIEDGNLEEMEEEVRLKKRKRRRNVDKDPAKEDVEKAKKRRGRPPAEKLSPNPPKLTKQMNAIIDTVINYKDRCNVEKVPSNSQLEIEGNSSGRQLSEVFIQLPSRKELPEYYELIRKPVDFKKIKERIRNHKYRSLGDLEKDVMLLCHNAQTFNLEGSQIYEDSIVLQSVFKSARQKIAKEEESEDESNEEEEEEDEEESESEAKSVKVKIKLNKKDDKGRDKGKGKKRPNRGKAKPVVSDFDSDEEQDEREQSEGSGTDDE
Nature of the test: HiBiT-BRM cell-based degradation assay (Nano-Glo HiBiT Lytic Detection). The conditions noted are these: stable HeLa cell line expressing HiBiT-BRM, 24 h incubation; for BRM HiBit Degradation Maximum (%): top dose 30 μM; for DC50: read-out: BRM HiBit Degradation IC50. On the procedure:
as §1, §2

A value given as a limit tells only on which side of the number the result lay.

T1 sequence (P51532 whole entry, the tested form may be a part): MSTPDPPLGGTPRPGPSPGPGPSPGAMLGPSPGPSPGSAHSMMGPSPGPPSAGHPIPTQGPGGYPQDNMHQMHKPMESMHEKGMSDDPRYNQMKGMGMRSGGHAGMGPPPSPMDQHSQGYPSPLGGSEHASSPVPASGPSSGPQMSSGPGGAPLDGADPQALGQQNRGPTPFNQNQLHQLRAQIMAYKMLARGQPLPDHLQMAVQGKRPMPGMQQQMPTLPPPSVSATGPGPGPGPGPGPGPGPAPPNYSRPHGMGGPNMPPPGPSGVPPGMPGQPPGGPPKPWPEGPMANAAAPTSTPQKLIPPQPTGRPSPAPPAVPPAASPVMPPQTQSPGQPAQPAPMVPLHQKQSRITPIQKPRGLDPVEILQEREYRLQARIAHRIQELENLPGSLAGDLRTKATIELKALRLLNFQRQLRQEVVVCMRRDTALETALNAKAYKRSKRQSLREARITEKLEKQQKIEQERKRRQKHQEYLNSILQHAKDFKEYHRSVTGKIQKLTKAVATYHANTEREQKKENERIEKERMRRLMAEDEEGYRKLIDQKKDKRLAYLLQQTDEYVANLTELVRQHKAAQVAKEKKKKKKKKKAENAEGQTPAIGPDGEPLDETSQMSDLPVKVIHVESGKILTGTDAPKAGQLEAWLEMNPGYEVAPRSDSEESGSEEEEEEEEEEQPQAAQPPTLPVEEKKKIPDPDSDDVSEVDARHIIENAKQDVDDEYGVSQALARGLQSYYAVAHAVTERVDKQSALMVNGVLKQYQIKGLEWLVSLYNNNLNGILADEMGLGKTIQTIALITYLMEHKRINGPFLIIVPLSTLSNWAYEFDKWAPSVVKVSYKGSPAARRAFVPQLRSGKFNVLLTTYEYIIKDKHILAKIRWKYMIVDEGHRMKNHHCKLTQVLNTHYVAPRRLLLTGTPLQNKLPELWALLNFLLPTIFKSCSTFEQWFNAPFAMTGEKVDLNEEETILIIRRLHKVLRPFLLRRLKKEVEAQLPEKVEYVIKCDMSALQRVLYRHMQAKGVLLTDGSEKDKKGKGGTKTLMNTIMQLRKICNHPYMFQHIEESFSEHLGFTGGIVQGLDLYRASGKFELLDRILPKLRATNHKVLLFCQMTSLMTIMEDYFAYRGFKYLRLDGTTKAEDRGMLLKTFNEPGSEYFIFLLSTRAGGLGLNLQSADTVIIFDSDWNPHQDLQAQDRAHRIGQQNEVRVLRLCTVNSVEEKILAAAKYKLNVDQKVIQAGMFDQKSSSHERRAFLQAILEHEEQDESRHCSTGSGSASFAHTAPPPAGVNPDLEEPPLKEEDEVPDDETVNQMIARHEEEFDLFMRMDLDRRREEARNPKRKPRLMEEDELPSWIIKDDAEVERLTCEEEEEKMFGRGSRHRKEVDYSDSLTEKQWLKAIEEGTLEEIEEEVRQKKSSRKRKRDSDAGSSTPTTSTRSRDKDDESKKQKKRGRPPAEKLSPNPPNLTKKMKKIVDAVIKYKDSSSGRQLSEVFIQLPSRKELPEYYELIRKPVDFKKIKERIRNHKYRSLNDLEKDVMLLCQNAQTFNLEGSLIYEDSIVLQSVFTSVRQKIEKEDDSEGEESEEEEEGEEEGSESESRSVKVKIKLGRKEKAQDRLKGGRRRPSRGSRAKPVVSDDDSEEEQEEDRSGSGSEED

As for `Cc1ncsc1-c1ccc([C@H](C)NC(=O)[C@@H]2C[C@@H](O)CN2C(=O)C(c2cc(C3CC(N4CCC(c5sc6nnc(-c7ccccc7O)cc6c5C)CC4)C3)no2)C(C)C)cc1` (single isomer, unassigned) [Compound 34], in test [1], the Dmax was under 50% and the DC50 was at least 1 µM. Also, at HiBit-BRM fusion protein, the “BRM HiBit Degradation Maximum (%)” value is reported as “A (“A” indicates maximum degradation ≥ 75%)” and the DC50 was at least 0.01 µM.

Regarding `Cc1ncsc1-c1ccc([C@H](C)NC(=O)[C@@H]2C[C@@H](O)CN2C(=O)[C@@H](c2cc(N3CCN(C(=O)[C@@H]4CCc5sc6nnc(-c7ccccc7O)cc6c5C4)CC3)no2)C(C)C)cc1` (single isomer, unassigned) [Compound 53], in test [1], the Dmax is under 50% and the DC50 was at least 1 µM. On HiBit-BRM fusion protein, the “BRM HiBit Degradation Maximum (%)” value was “C (“C” indicates maximum degradation < 50%)” and the DC50 was at least 1 µM.

With `Cc1ncsc1-c1ccc(CNC(=O)[C@@H]2C[C@@H](O)CN2C(=O)[C@H](c2cc(N3CCOCC3)no2)C(C)C)c(OCCCN2CCC(c3sc4nnc(-c5ccccc5O)cc4c3C)CC2)c1` (single isomer, unassigned) [Compound 55], in test [1], the Dmax was under 50% and the DC50 was at least 1 µM. Further, at HiBit-BRM fusion protein, the “BRM HiBit Degradation Maximum (%)” value is “A (“A” indicates maximum degradation ≥ 75%)” and the DC50 was at least 1 µM.

As to `Cc1ncsc1-c1ccc(CNC(=O)[C@@H]2C[C@@H](O)CN2C(=O)[C@@H](c2cc(N3CCOCC3)no2)C(C)C)c(OCCCN2CCC(c3sc4nnc(-c5ccccc5O)cc4c3C)CC2)c1` (single isomer, unassigned) [Compound 56], in test [1], the Dmax is under 50% and the DC50 is at least 1 µM. Also, at HiBit-BRM fusion protein, the “BRM HiBit Degradation Maximum (%)” value is given as “B (“B” indicates maximum degradation ≥ 50%)” and the DC50 was at least 0.01 µM.

Regarding `Cc1ncsc1-c1ccc([C@H](C)NC(=O)[C@@H]2C[C@@H](O)CN2C(=O)[C@@H](c2cc(OCCN3CC(c4cc5cc(-c6ccccc6O)nnc5s4)C3)no2)C(C)C)cc1` [Compound 1, (2S,4R)-4-hydroxy-1-((R)-2-(3-(2-(3-(3-(2-hydroxyphenyl)thieno[2,3-c]pyridazin-6-yl)azetidin-1-yl)ethoxy)isoxazol-5-yl)-3-methylbutanoyl)-N—((S)-1-(4-(4-methylthiazol-5-yl)phenyl)ethyl)pyrrolidine-2-carboxamide], in test [1], the Dmax was under 50% and the DC50 was at least 1 µM. Also, at HiBit-BRM fusion protein, the “BRM HiBit Degradation Maximum (%)” value is “B (“B” indicates maximum degradation ≥ 50%)” and the DC50 was at least 0.01 µM.

Turning to `Cc1ncsc1-c1ccc([C@H](C)NC(=O)[C@@H]2C[C@@H](O)CN2C(=O)[C@@H](c2cc(OCCN3CCC(c4cc5cc(-c6ccccc6O)nnc5s4)CC3)no2)C(C)C)cc1` [Compound 2, (2S,4R)-4-hydroxy-1-((R)-2-(3-(2-(4-(3-(2-hydroxyphenyl)thieno[2,3-c]pyridazin-6-yl)piperidin-1-yl)ethoxy)isoxazol-5-yl)-3-methylbutanoyl)-N—((S)-1-(4-(4-methylthiazol-5-yl)phenyl)ethyl)pyrrolidine-2-carboxamide], in test [1], the Dmax was under 50% and the DC50 is at least 1 µM. For the same molecule, on HiBit-BRM fusion protein, the “BRM HiBit Degradation Maximum (%)” value was “A (“A” indicates maximum degradation ≥ 75%)” and the DC50 was at least 0.01 µM.

On to `Cc1ncsc1-c1ccc([C@H](C)NC(=O)[C@@H]2C[C@@H](O)CN2C(=O)[C@@H](c2cc(N3CCN(C(=O)CN4CC(c5cc6cc(-c7ccccc7O)nnc6s5)C4)CC3)no2)C(C)C)cc1` [Compound 3, (2S,4R)-4-hydroxy-1-[(2R)-2-{3-[4-(2-{3-[3-(2-hydroxyphenyl)thieno[2,3-c]pyridazin-6-yl]azetidin-1-yl}acetyl)piperazin-1-yl]-1,2-oxazol-5-yl}-3-methylbutanoyl]-N-[(1S)-1-[4-(4-methyl-1,3-thiazol-5-yl)phenyl]ethyl]pyrrolidine-2-carboxamide], for which, in test [1], the Dmax is under 50% and the DC50 was at least 1 µM. Moreover, at HiBit-BRM fusion protein, the “BRM HiBit Degradation Maximum (%)” value is recorded as “A (“A” indicates maximum degradation ≥ 75%)” and the DC50 is at least 0.1 µM.

In the case of `Cc1ncsc1-c1ccc([C@H](C)NC(=O)[C@@H]2C[C@@H](O)CN2C(=O)[C@H](c2cc(N3CCC(C(=O)N4CC(c5cc6cc(-c7ccccc7O)nnc6s5)C4)CC3)no2)C(C)C)cc1` [Compound 4, (2S,4R)-4-hydroxy-1-((S)-2-(3-(4-(3-(3-(2-hydroxyphenyl)thieno[2,3-c]pyridazin-6-yl)azetidine-1-carbonyl)piperidin-1-yl)isoxazol-5-yl)-3-methylbutanoyl)-N—((S)-1-(4-(4-methylthiazol-5-yl)phenyl)ethyl)pyrrolidine-2-carboxamide], in test [1], the Dmax is under 50% and the DC50 is at least 1 µM. On HiBit-BRM fusion protein, the “BRM HiBit Degradation Maximum (%)” value was “C (“C” indicates maximum degradation < 50%)” and the DC50 was at least 1 µM.

With `Cc1ncsc1-c1ccc([C@H](C)NC(=O)[C@@H]2C[C@@H](O)CN2C(=O)[C@@H](c2cc(N3CCC(C(=O)N4CC(c5cc6cc(-c7ccccc7O)nnc6s5)C4)CC3)no2)C(C)C)cc1` [Compound 5, (2S,4R)-4-hydroxy-1-((R)-2-(3-(4-(3-(3-(2-hydroxyphenyl)thieno[2,3-c]pyridazin-6-yl)azetidine-1-carbonyl)piperidin-1-yl)isoxazol-5-yl)-3-methylbutanoyl)-N—((S)-1-(4-(4-methylthiazol-5-yl)phenyl)ethyl)pyrrolidine-2-carboxamide], in test [1], the Dmax was under 50% and the DC50 was at least 1 µM. On HiBit-BRM fusion protein, the “BRM HiBit Degradation Maximum (%)” value is reported as “A (“A” indicates maximum degradation ≥ 75%)” and the DC50 was at least 0.01 µM.

As for `Cc1ncsc1-c1ccc([C@H](C)NC(=O)[C@@H]2C[C@@H](O)CN2C(=O)[C@@H](c2cc(N3CCN(CC(=O)N4CC(c5cc6cc(-c7ccccc7O)nnc6s5)C4)CC3)no2)C(C)C)cc1` [Compound 6, (2S,4R)-4-hydroxy-1-[(2R)-2-{3-[4-(2-{3-[3-(2-hydroxyphenyl)thieno[2,3-c]pyridazin-6-yl]azetidin-1-yl}-2-oxoethyl)piperazin-1-yl]-1,2-oxazol-5-yl}-3-methylbutanoyl]-N-[(1S)-1-[4-(4-methyl-1,3-thiazol-5-yl)phenyl]ethyl]pyrrolidine-2-carboxamide], in test [1], the Dmax is under 50% and the DC50 was at least 1 µM. For the same molecule, at HiBit-BRM fusion protein, the “BRM HiBit Degradation Maximum (%)” value is listed as “B (“B” indicates maximum degradation ≥ 50%)” and the DC50 was at least 0.1 µM.

On to `Cc1ncsc1-c1ccc([C@H](C)NC(=O)[C@@H]2C[C@@H](O)CN2C(=O)[C@@H](c2cc(N3CCC(CN4CC(c5cc6cc(-c7ccccc7O)nnc6s5)C4)CC3)no2)C(C)C)cc1` [Compound 7], for which, in test [1], the Dmax is under 50% and the DC50 is at least 1 µM. In addition, on HiBit-BRM fusion protein, the “BRM HiBit Degradation Maximum (%)” value was “A (“A” indicates maximum degradation ≥ 75%)” and the DC50 was at least 0.01 µM.

`Cc1ncsc1-c1ccc([C@H](C)NC(=O)[C@@H]2C[C@@H](O)CN2C(=O)[C@@H](c2cc(OCCN3CCC(c4sc5nnc(-c6ccccc6O)cc5c4C)CC3)no2)C(C)C)cc1` [Compound 8, (2S,4R)-4-hydroxy-1-[(2R)-2-[3-(2-{4-[3-(2-hydroxyphenyl)-5-methylthieno[2,3-c]pyridazin-6-yl]piperidin-1-yl}ethoxy)-1,2-oxazol-5-yl]-3-methylbutanoyl]-N-[(1S)-1-[4-(4-methyl-1,3-thiazol-5-yl)phenyl]ethyl]pyrrolidine-2-carboxamide]: in test [1], the Dmax is under 50% and the DC50 was at least 1 µM. Besides, on HiBit-BRM fusion protein, the “BRM HiBit Degradation Maximum (%)” value is listed as “A (“A” indicates maximum degradation ≥ 75%)” and the DC50 was under 0.01 µM.

As to `Cc1ncsc1-c1ccc([C@H](C)NC(=O)[C@@H]2C[C@@H](O)CN2C(=O)[C@@H](c2cc(OCCN3CC(c4cc5nnc(-c6ccccc6O)cc5s4)C3)no2)C(C)C)cc1` [Compound 9, (2S,4R)-4-hydroxy-1-((R)-2-(3-(2-(3-(3-(2-hydroxyphenyl)thieno[3,2-c]pyridazin-6-yl)azetidin-1-yl)ethoxy)isoxazol-5-yl)-3-methylbutanoyl)-N—((S)-1-(4-(4-methylthiazol-5-yl)phenyl)ethyl)pyrrolidine-2-carboxamide], in test [1], the Dmax was under 50% and the DC50 was at least 1 µM. For the same molecule, at HiBit-BRM fusion protein, the “BRM HiBit Degradation Maximum (%)” value is given as “A (“A” indicates maximum degradation ≥ 75%)” and the DC50 was at least 0.01 µM.

Regarding `Cc1ncsc1-c1ccc([C@H](C)NC(=O)[C@@H]2C[C@@H](O)CN2C(=O)[C@@H](c2cc(N3CCC(C(=O)N4CC(c5sc6nnc(-c7ccccc7O)cc6c5C)C4)CC3)no2)C(C)C)cc1` [Compound 10], in test [1], the Dmax was under 50% and the DC50 is at least 1 µM. Further, on HiBit-BRM fusion protein, the “BRM HiBit Degradation Maximum (%)” value is listed as “A (“A” indicates maximum degradation ≥ 75%)” and the DC50 is at least 0.01 µM.
